Experimental findings from patent US20260271987A1, “AEROSOL PRECURSOR COMPOSITION COMPRISING MONOMENTHYL ESTER” (RAI STRATEGIC HOLDINGS, INC., priority 2023, published 2026) are described below.

A short description of this series: Thermal analysis (flash pyrolysis and thermogravimetric analysis) of neat menthyl monosuccinate. It counts as physicochemical. The note with it: for Compounds volatilized by FP and TGA, Area %: neat menthyl monosuccinate sample, FP in helium, Teq=340° C., 40 seconds, GC/MS, TGA 30 to 340° C. at 20 degrees per minute. Here is the method: Flash pyrolysis (FP) and thermogravimetric analysis (TGA) were conducted on a sample of menthyl monosuccinate.
For the FP, a pyroprobe Model 5200 (CDS Analytical, CDS, Oxford, PA 19363, USA) pyrolyzer was used. Heating was performed in helium in flash mode with Teq=340° C. using approximately 0.5 mg of neat monomenthyl succinate. Heating was performed for 40 seconds. GC/MS analysis was performed with separation on a DB-1701 column. For the TG, a Discovery TA 5500 (TA Instruments, New Castle, DE, USA) was used. The temperature range was 30 to 340° C. at a ramp rate of 20 degrees per minute. Neat monomenthyl succinate (2-3 mg) and silica (about 1.5 mg, containing 5% naphthalene) was used as an internal standard.

Regarding `CC(C)[C@@H]1CC[C@@H](C)C[C@H]1O` [Menthol, (1R,2S,5R)-5-Methyl-2-(propan-2-yl)cyclohexan-1-ol], the “Compounds volatilized by FP and TGA, Area %” value worked out at 16.5%. For the same molecule, the “major decomposition product formed from menthyl monosuccinate” value (FP and TGA, up to 340° C.) worked out at 16.5%.
Turning to `CC(C)[C@@H]1CC[C@@H](C)C[C@H]1OC(=O)CCC(=O)O` [Menthyl monosuccinate], the “Compounds volatilized by FP and TGA, Area %” value is 70%. The “portion of the menthyl monosuccinate volatilized without decomposition” value (FP and TGA, up to 340° C.) was found to be 70%.
